This passage reports TGI and GI50 results from PubChem BioAssay (NCI).

Some test systems named below: OVCAR-5 ovarian; MDA-N; MDA-MB-435; MOLT-4 leukemia; UO-31 renal; PC-3 prostate; MDA-MB-231 breast; SK-MEL-2 melanoma; HL-60(TB) leukemia; M14 melanoma.
What all share (assay): NCI anticancer screen, dose series, 48 h

Values joined by “and” are separate entries in the source; they are usually repeats but may differ in a detail not shown here. Identical values can stand only once.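 Compound exposure: 48 hours, 5 concentrations, 96-well plates. GI50: concentration for 50% inhibition of growth. TGI: total growth inhibition.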 A value given as a limit tells only on which side of the number the result lay.

`O=C(CSc1nc2ccc(I)cc2c(=O)n1Cc1ccccc1)NNC(=O)c1ccccc1`: the TGI in the assay with OVCAR-5 ovarian is 40.5 µM; in the assay with MDA-N, greater than 100 µM; in the assay on MDA-MB-435, greater than 100 µM; in the assay with MOLT-4 leukemia, 23.5 µM; with UO-31 renal it was 2.73 µM; in the assay with PC-3 prostate it was 24 µM. The TGI is 28.2 µM with MDA-MB-231 breast, 19.2 µM in the assay with SK-MEL-2 melanoma, greater than 100 µM in the assay with HL-60(TB) leukemia and greater than 100 µM in the assay on M14 melanoma.
As for `O=C(CCCl)NNC1=NCCCN1`, the TGI in the assay with OVCAR-5 ovarian, in the assay on MDA-N, with MDA-MB-435, in the assay on MOLT-4 leukemia, with UO-31 renal and in the assay with PC-3 prostate was greater than 100 µM throughout. Further, the TGI in the assay with MDA-MB-231 breast, in the assay on SK-MEL-2 melanoma, with HL-60(TB) leukemia and in the assay on M14 melanoma was greater than 100 µM in each case.
For the compound `COC(=O)/C=C/C1(O)C=CC(=O)C=C1`, the TGI with OVCAR-5 ovarian is 12 µM; with MDA-N, 4.5 µM; with MDA-MB-435 it was greater than 39.2 µM; in the assay with MOLT-4 leukemia, greater than 24.6 µM; in the assay on UO-31 renal, 3.51 µM; in the assay with PC-3 prostate it was 9.53 µM. Further, the TGI in the assay with MDA-MB-231 breast was 5.37 µM; in the assay with SK-MEL-2 melanoma, 19.1 µM; in the assay on HL-60(TB) leukemia, 6.8 µM; in the assay with M14 melanoma it was 3.78 µM.
Consider `C[C@@H](NC(=O)c1ccc(CNC(=O)/C=C/c2cccc(Oc3ccccc3)c2)cc1)c1ccccc1`, for which the TGI in the assay on OVCAR-5 ovarian was greater than 100 µM; in the assay with MDA-N, greater than 100 µM; in the assay on MDA-MB-435 it was greater than 100 µM; in the assay on MOLT-4 leukemia, greater than 100 µM; with UO-31 renal, 27.5 µM; with PC-3 prostate, greater than 100 µM. The TGI in the assay on MDA-MB-231 breast, with SK-MEL-2 melanoma, in the assay with HL-60(TB) leukemia and in the assay on M14 melanoma was greater than 100 µM each time.
With `COC(=O)C1=C(C(=O)OC)SC2(S1)C(C(=O)OC)=C(C(=O)OC)Sc1c2ssc1=Nc1ccc(Cl)cc1`, the TGI in the assay on OVCAR-5 ovarian was determined as 2.81 µM; in the assay on MDA-N, 1.69 µM; in the assay on MDA-MB-435, 2.14 µM; with MOLT-4 leukemia, 5.04 µM; in the assay on UO-31 renal, 2.01 µM; in the assay on PC-3 prostate, 1.71 µM. Moreover, the TGI with MDA-MB-231 breast came to 2.17 µM; in the assay on SK-MEL-2 melanoma, 1.36 µM; in the assay on HL-60(TB) leukemia, 6.74 µM; in the assay with M14 melanoma, 2.79 µM.
In the case of `CN1CCN(c2ccc3nc(-c4ccc5nc(-c6ccc(O)cc6)[nH]c5c4)[nH]c3c2)CC1`, the TGI with OVCAR-5 ovarian is 679 µM; with MDA-N, 354 µM; with MDA-MB-435 it was 217 µM; in the assay with MOLT-4 leukemia it was 482 µM; with UO-31 renal, 938 µM; in the assay on PC-3 prostate it was 1150 µM. The TGI in the assay on MDA-MB-231 breast turned out to be 639 µM; in the assay on SK-MEL-2 melanoma, 578 µM; in the assay with HL-60(TB) leukemia, 148 µM; with M14 melanoma, 493 µM. Besides, the GI50 in the assay with MDA-N was 8.77 µM; in the assay with MDA-MB-435 it was 41.7 µM; with MOLT-4 leukemia, 37.2 µM and 39.4 µM; with UO-31 renal, 10.6 µM; with SK-MEL-2 melanoma, 198 µM; with HL-60(TB) leukemia, 9.03 µM and 24.3 µM.
For the compound `Cc1ccc2nc(C=Nc3ccc(Cl)cc3)cc(C)c2c1`, the TGI in the assay on OVCAR-5 ovarian is greater than 100 µM; in the assay with MDA-N, 25.2 µM; in the assay on MDA-MB-435 it was 24.1 µM; in the assay on MOLT-4 leukemia, greater than 53.6 µM; with UO-31 renal, 7.91 µM; in the assay with PC-3 prostate, greater than 76.5 µM. In addition, the TGI is 27.3 µM in the assay with MDA-MB-231 breast, greater than 100 µM in the assay on SK-MEL-2 melanoma, 16.7 µM in the assay on HL-60(TB) leukemia and 21.1 µM in the assay on M14 melanoma.
Turning to `O=C(O)CCCc1ccc2ccccc2c1`, the TGI in the assay on OVCAR-5 ovarian, with MDA-N, in the assay with MDA-MB-435, with MOLT-4 leukemia, in the assay on UO-31 renal and in the assay on PC-3 prostate was greater than 100 µM throughout. In addition, the TGI in the assay on MDA-MB-231 breast, in the assay on SK-MEL-2 melanoma, in the assay on HL-60(TB) leukemia and with M14 melanoma was greater than 100 µM throughout.
In the case of `CC(OC(=O)C(CC(=O)OC(C)(C)C)NC(=O)OC(C)(C)C)C(=O)OCc1ccccc1` (stereo unspecified), the TGI with OVCAR-5 ovarian, in the assay on MDA-N, with MDA-MB-435, in the assay on MOLT-4 leukemia, with UO-31 renal and with PC-3 prostate was greater than 100 µM throughout. The TGI in the assay with MDA-MB-231 breast, with SK-MEL-2 melanoma, with HL-60(TB) leukemia and in the assay with M14 melanoma was greater than 100 µM throughout.
For `COc1cc2c(cc1OCCCCOc1cc3c(cc1OC)C(=O)N1CCC[C@H]1C(=O)N3)N=C[C@@H]1CCCN1C2=O`, the TGI came out at 33 µM with OVCAR-5 ovarian; 19.6 µM in the assay on MDA-N; 14.4 µM with MDA-MB-435; 4.69 µM in the assay on MOLT-4 leukemia; 28 µM in the assay with UO-31 renal; 19.4 µM with PC-3 prostate. Further, the TGI in the assay with MDA-MB-231 breast was determined as 8.7 µM; in the assay on SK-MEL-2 melanoma, 20.1 µM; in the assay with HL-60(TB) leukemia, 37.3 µM; in the assay with M14 melanoma it was 33 µM.
In the case of `COc1ccc2nc3ccc(OC)cc3c(SCc3ccccc3)c2c1`, the TGI with OVCAR-5 ovarian was greater than 100 µM; with MDA-N it was greater than 26.3 µM; in the assay with MDA-MB-435, greater than 100 µM; with MOLT-4 leukemia, greater than 83.2 µM; in the assay with UO-31 renal it was greater than 35.7 µM; in the assay with PC-3 prostate it was greater than 100 µM. Moreover, the TGI is greater than 100 µM with MDA-MB-231 breast, greater than 100 µM in the assay on SK-MEL-2 melanoma, greater than 100 µM in the assay with HL-60(TB) leukemia and greater than 50 µM in the assay on M14 melanoma.
For `CCOc1cc2oc(C)cc(=O)c2c(OC)c1C=Nc1ccc(Cn2c(C)nc3ccccc32)cc1`, the TGI in the assay with OVCAR-5 ovarian, in the assay with MDA-N, in the assay with MDA-MB-435, in the assay on MOLT-4 leukemia, in the assay with UO-31 renal and with PC-3 prostate was greater than 100 µM throughout. Further, the TGI in the assay with MDA-MB-231 breast, with SK-MEL-2 melanoma, with HL-60(TB) leukemia and with M14 melanoma was greater than 100 µM throughout.
On to `CC(=O)OC12c3ccccc3-c3ccccc3C1C1C(=O)OC(=O)C12` (stereo unspecified), for which the TGI with OVCAR-5 ovarian, with MDA-N, in the assay on MDA-MB-435, in the assay on MOLT-4 leukemia, in the assay on UO-31 renal and in the assay on PC-3 prostate was greater than 10 µM in each case. For the same compound, the TGI in the assay with MDA-MB-231 breast, with SK-MEL-2 melanoma, in the assay with HL-60(TB) leukemia and with M14 melanoma was greater than 10 µM each time.
For `CCOC(=O)C(NC(=O)c1ccccc1)(Nc1ccc(Cl)cc1C(F)(F)F)C(F)(F)F` (stereo unspecified), the TGI in the assay with OVCAR-5 ovarian was greater than 100 µM; in the assay on MDA-N, 3.69 µM; in the assay on MDA-MB-435, 3.24 µM; in the assay on MOLT-4 leukemia, greater than 22.2 µM; in the assay with UO-31 renal, greater than 100 µM; in the assay with PC-3 prostate, 29.2 µM. Further, the TGI was 77.2 µM with MDA-MB-231 breast, greater than 45.1 µM in the assay on SK-MEL-2 melanoma, 5.04 µM in the assay with HL-60(TB) leukemia and 28 µM in the assay on M14 melanoma.
As to `Cc1ccc(S(=O)c2sccc2C=O)cc1` (stereo unspecified), the TGI is greater than 100 µM in the assay on OVCAR-5 ovarian; greater than 100 µM with MDA-N; 62.6 µM with MDA-MB-435; 59.1 µM with MOLT-4 leukemia; greater than 100 µM in the assay on UO-31 renal; greater than 100 µM in the assay with PC-3 prostate. For the same compound, the TGI is greater than 100 µM in the assay with MDA-MB-231 breast, greater than 100 µM in the assay with SK-MEL-2 melanoma, 48.2 µM in the assay on HL-60(TB) leukemia and 58.1 µM in the assay on M14 melanoma.
For the compound `CCN(CC)CCNc1ccc2nnn3c4ccc(O)cc4c(=O)c1c23`, the TGI is 22.4 µM with OVCAR-5 ovarian; 17.5 µM with MDA-N; 17.4 µM in the assay with MDA-MB-435; 4.76 µM in the assay with MOLT-4 leukemia; 4.06 µM in the assay on UO-31 renal; 16.9 µM with PC-3 prostate. In addition, the TGI was 18.2 µM in the assay on MDA-MB-231 breast, 25.2 µM with SK-MEL-2 melanoma, 25.1 µM in the assay with HL-60(TB) leukemia and 20.1 µM with M14 melanoma.
As to `Cc1nnc(N)nc1/C=C/c1c(O)ccc2ccccc12`, the TGI with OVCAR-5 ovarian was 78.7 µM; in the assay with MDA-N, greater than 100 µM; in the assay on MDA-MB-435 it was 79.5 µM; in the assay on MOLT-4 leukemia it was greater than 100 µM; in the assay with UO-31 renal, 84.6 µM; in the assay on PC-3 prostate, 64.1 µM. Also, the TGI in the assay with MDA-MB-231 breast is greater than 100 µM; with SK-MEL-2 melanoma, 35.5 µM; with HL-60(TB) leukemia it was 71.4 µM; with M14 melanoma it was 44.1 µM.
With `CCOC(=O)C(C(=S)SC)c1nn2c(=O)cc(C)nc2s1` (stereo unspecified), the TGI with OVCAR-5 ovarian is 38.7 µM; in the assay on MDA-N it was 29.8 µM; in the assay with MDA-MB-435, 32.4 µM; in the assay on MOLT-4 leukemia, 44.2 µM; in the assay with UO-31 renal, 40 µM; with PC-3 prostate, 37.3 µM. The TGI with MDA-MB-231 breast was found to be 37.9 µM; in the assay with SK-MEL-2 melanoma, 41.5 µM; with HL-60(TB) leukemia, 35.3 µM; in the assay on M14 melanoma, 29.8 µM.
With `CCOC(=O)C(=O)/C(=C/N1C(=O)CC(=O)NC1=S)C(=O)OCC`, the TGI with OVCAR-5 ovarian, with MDA-N, in the assay on MDA-MB-435, in the assay with MOLT-4 leukemia, in the assay on UO-31 renal and in the assay on PC-3 prostate was greater than 100 µM throughout. For the same compound, the TGI in the assay on MDA-MB-231 breast, in the assay with SK-MEL-2 melanoma, with HL-60(TB) leukemia and in the assay with M14 melanoma was greater than 100 µM in each case.
For the compound `CCOC(=O)c1c2c(c(O)c3ccccc3c(O)n(Cc3ccccc3)c1C)C(=O)C=CC2=O`, the TGI in the assay on OVCAR-5 ovarian, in the assay with MDA-N, in the assay on MDA-MB-435, in the assay with MOLT-4 leukemia, in the assay on UO-31 renal and in the assay with PC-3 prostate was greater than 100 µM in each case. Besides, the TGI with MDA-MB-231 breast, in the assay with SK-MEL-2 melanoma, in the assay with HL-60(TB) leukemia and in the assay with M14 melanoma was greater than 100 µM each time.
With `CSc1ccc(/C=C2\N=C(c3ccccc3)N(c3nc4cc(C)c(C)cc4s3)C2=O)cc1`, the TGI in the assay on OVCAR-5 ovarian was 67.9 µM; in the assay on MDA-N, 33.3 µM; in the assay on MDA-MB-435, 37.7 µM; in the assay on MOLT-4 leukemia, greater than 100 µM; in the assay with UO-31 renal, greater than 100 µM; in the assay on PC-3 prostate it was 49.3 µM. For the same compound, the TGI is greater than 100 µM with MDA-MB-231 breast, 34.1 µM with SK-MEL-2 melanoma, 86.3 µM with HL-60(TB) leukemia and 75.8 µM in the assay with M14 melanoma.
